Results from patent publication US20060239927A1, “Drug for airway administration” (Kyowa Hakko Kogyo Co.,, priority 2003, published 2006).

How the values were obtained:
Format in all cases: in vivo
[1] = tested on: antigen-induced eosinophil infiltration; test: Antigen-induced eosinophil infiltration, intrabronchial administration (BALF cell count); details: BN rats; for Number of eosinophils: BAL 24 hours after antigenic exposure, mean ± standard error; for inhibitory effect to infiltration of eosinophils induced by antigen (in words): 30 to 100 μg/rat
Experimental: (§1) The test was conducted in accordance with a known method [Pulmonary Pharmacology, volume 8, pages 83-89 (1995)].
(§2) Male BN rats of six weeks age (Nippon Charles Liver) were used for the test. Five to six rats were put in each plastic cage in a breeding room where the room temperature was 19 to 25° C., humidity was 30 to 70% and a daily illumination was 12 hours (from 7 a.m. to 7 p.m.), and breeding was conducted where commercially available solid feed and water were freely taken by the rats.
(§3) A suspension (1 mL) of 1 mg of ovalbumin (OVA; manufactured by Sigma) and 200 mg of aluminum hydroxide (manufactured by Wako Pure Chemical) in 1 mL of a physiological saline (manufactured by Otsuka Pharmaceutical) was subcutaneously administered to each rat, and then 0.5 mL of a suspension of killed Virdetella pertussis (2×10^10 cells/mL physiological saline solution; manufactured by Kaken Pharmaceutical) was intraperitoneally administered to conduct active sensitization. After 14 days from the active sensitization, the rats were placed in a plastic chamber (30×50×30 cm) and subjected to an antigenic exposure by nebulizing of an 1 weight/volume % solution of OVA in a physiological saline for 10 minutes. For the nebulizing, an ultrasonic nebulizer (manufactured by Omron) was used.
(§4) By the same manner as in Test Example 1, a suspension for administration of Compound (II) was prepared and intrabronchially administered to the sensitized rats.
(§5) Before 30 minutes of the antigenic exposure, the solvent for administration or the suspension for administration of Compound (II) was intrabronchially administered to the sensitized rats at a dose of 100 μL to each of right and left bronchi (200 μL in total). A group where a suspension for administration of Compound (II) was intrabronchially administered to the sensitized rat and an 1 weight/volume % OVA-physiological saline solution was nebulized, was called a Compound (II)-administered group; a group where the solvent for administration was intrabronchially administered to the sensitized rat and an 1 weight/volume % OVA-physiological saline solution was nebulized, was called a solvent-administered group; and a group where the solvent for administration was intrabronchially administered and a physiological saline was nebulized, was called a physiological saline group.
(§6) After 24 hours of the antigenic exposure or of the nebulizing with a physiological saline, a broncho-alveolar lavage (BAL) was conducted. Thus, a rat was anesthetized by an intraperitoneal administration of pentobarbital (manufactured by Dainippon Pharmaceutical) and pulmonary alveoli cavity was washed with a physiological saline via an airway cannula to prepare a broncho-alveolar lavage fluid (BALF).
(§7) The BALF was centrifuged under the condition of 950 rpm (200×g) at 4° C. for 10 minutes, the precipitated cells were suspended in 1 mL of a physiological saline, and total leukocyte numbers were measured by an automatic blood corpuscle counter (manufactured by Nippon Koden). Smeared samples of cells were also prepared using Cytospin III (manufactured by Shandon). After the smeared sample was subjected to a Giemsa staining, 500 cells were observed under an optical microscope, numbers of eosinophils and neutrophils were counted and their ratios were calculated. Number of eosinophils and number of neutrophils were calculated by multiplying the total leukocyte numbers by each ratio of number of eosinophils and number of neutrophils, respectively. Inhibition rate (%) to increases of number of eosinophils and number of neutrophils respectively in BALF was calculated according to the following. [formula]
(§8) A: Numbrer of eosinophils or neutrophils in the solvent-administering group
(§9) B: Numbrer of eosinophils or neutrophils in the Compound (II)-administered group
(§10) C: Numbrer of eosinophils or neutrophils in the physiological saline group

[2] = Changes in concentration in lung tissues and in plasma upon intra-airway (intrabronchial) administration; details: SD rats, 4 mg/kg; for AUC in lung tissues (concentration in lung tissues) / AUC in plasma (concentration in plasma): 0.25-4 hours; for half-life / Kp: male, rat, other: intrabronchial; for half-life: in vivo, read-out: biological half-life (T1/2) (converted); for Kp: lung tissue / plasma, read-out: ratio of concentration in lung tissues to concentration in plasma (AUC)
Experimental: Male rats of SD strain (Nippon Charles Liver, Kanagawa) were bred under the condition of temperature of 23±1° C. and humidity of 55±5%, and those where body weight was 210 to 240 g at seven weeks age were used for the test. Administration of the test compound (Compound (II)) was conducted under a non-fasting condition, and during the test, solid feed (F-2; Funahashi Nojo, Chiba) and tap water were freely taken by them. Case numbers for the test was made n=2 for each stage.
According to a conventional method, the preparations of Compound (II) and RP 73401 being known as a PDE-IV inhibitor [drawing 9] [J. Med. Chem., volume 37, pages 1696-1703 (1994)] were prepared (lactose/Compound (II) or RP 73401=5/1), and each of them was suspended in 0.125 weight/volume % tyloxapol (Alevaire: registered trade mark, Nippon Shoji, Osaka). The resulting suspension was further diluted with 0.125 weight/volume % tyloxapol containing 0.25 weight/volume % of lactose (Pharmatose 325 M; registered trade mark, DMV International, Veghel, The Nethelands) (a solvent for administration), and a suspension for administration of Compound (II) or RP 73401 having an desired concentration was prepared.
Each of Compound (II) and RP 73401 was intrabronchially administered at a dose of 4 mg/kg, respectively. The solvent for administration or the suspension for administration of Compound (II) or RP 73401 was intrabronchially administered to each of right and left bronchi of an ether-anesthetized rat at a dose of 100 μL (200 μL in total) using a disposable oral sound (for mice; Fuchigami Kikai, Kyoto).
At each of stages of 0.25, 0.5, 1, 2 and 4 hours after the intrabronchial administration, abdomen of rat under a light anesthetization with ether was incised, and about 1 mL of blood was collected from a descending vena cava using a heparin-treated syringe (24 G; 1 mL; Thermo, Tokyo). Plasma was separated from the blood using a cooling centrifugal separator and stored by freezing at −20° C. until the measurement. After washing the pulmonary alveoli, the bronchus was resected to collect the lung. The wet weight of the lung was measured and the lung was stored by freezing.
To 100 μL of the plasma collected hereinabove was added a 200 μL of methanol solution of 25 μg/mL 7-[2-(3,5-dichloro-4-pyridyl)-1-oxoethyl]-4-methoxy-spiro-[1,3-benzodioxole-2,1′-cyclohexane] (an internal standard substance), and the mixture was stirred. The mixture was allowed to stand for 10 minutes on ice, followed by centrifuged, and then 200 μL of the supernatant was dried under a nitrogen flow. The resulting solid was dissolved in 200 μL of methanol and centrifuged. The resulting supernatant was subjected to centrifugal filtration using a centrifugal filtration unit ultrafree (C3GV; 0.22 μm; Nippon Millipore, Tokyo). The filtrate (100 μL) was used as a plasma sample and concentrations of Compound (II) and RP 73401 were measured using a mass spectrometer (LC/MS/MS).
In an immunotube (15 mL: Nunc, Glostrup, Denmark), to the lung prepared hereinabove was added the internal standard substance in which the concentration to the lung tissues was previously made 10 μg/g lung tissues, and the mixture was dried under a nitrogen flow. To the resulting solid was added pure water (Milli-Q SP Reagent Water System: Nippon Millipore, Tokyo) in an amount of one-fold to the wet weight followed by subjecting to homogenizing using a homogenator (Ikemoto Rika Kogyo, Tokyo). A two-fold amount of methanol was further added thereto and the mixture was homogenized, allowed to stand for 10 minutes on ice and centrifuged. The supernatant (300 μL) was taken into a microtube and centrifuged once again. The resulting supernatant (100 μL) was used as a lung sample, and concentrations of Compound (II) and RP 73401 were measured by using of a high-performance liquid chromatography (HPLC).

[3] = tested on: antigen-induced neutrophil infiltration; test: Antigen-induced neutrophil infiltration, intrabronchial administration (BALF cell count); details: BN rats; for Number of neutrophils: BAL 24 hours after antigenic exposure, mean ± standard error; for inhibitory effect to infiltration of neutrophils induced by antigen (in words): 30 to 100 μg/rat
Experimental: as §1, §2, §3, §4, §5, §6, §7, §8, §9, §10

gastric excretion = test: Inhibitory activity for gastric excretion by intrabronchial administration (Phenol Red method); details: SD rats, intrabronchial 30 minutes before P-C solution, 30 to 100 μg/rat
Experimental: Male SD rats (six weeks age; body weight upon purchase was 180 to 200 g; Nippon SLC) were used for the test. The rats were bred in an animal room where room temperature was 23±1° C., humidity was 55±5% and solid feed and drinking water were made freely taken by them.
Suspensions for administration of Compound (II) and RP 73401 were prepared by the same manner as in Test Example 1 and each of them was subjected to an intrabronchial administration.
The rats (body weight used for the experiment: about 200 g) were fasted on the day before the test (before about 24 hours) and were bred only by drinking water. A test for gastric excretion was conducted according to a Phenol Red method [Arch. Int. […]
A 1.5 mL of an 1.5 weight/volume % carboxymethyl cellulose (CMC) solution containing a 0.05 weight/volume % Phenol Red (hereinafter, referred to as P—C solution) was orally administered to the rats where one group comprised six rats. […] The extirpated stomach was incised in 40 mL of a 0.1 mol/L aqueous NaOH solution to recover the P—C solution and the amount of Phenol Red remaining in the stomach was measured. […] The gastric excretion ratio (%) in the agent-administered group or the solvent-administered group was calculated by the following equation (1) while the inhibition rate (%) of the agent to the gastric excretion was calculated from the gastric excretion ratio using the following equation (2). […]

SMILES | Inhibition rate to increase of number of eosinophils in BALF ([1]; 30 μg/rat) [%] | Number of eosinophils ([1]; 30 μg/rat) | Inhibition rate to increase of number of eosinophils in BALF ([1]; 100 μg/rat) [%] | Number of eosinophils ([1]; 100 μg/rat) | inhibitory effect to infiltration of eosinophils induced by antigen (in words) [1] | AUC in lung tissues (concentration in lung tissues) [2] [µg·h/mL] | AUC in plasma (concentration in plasma) [2] [µg·h/mL] | half-life [2] [h] | Kp [2] | Inhibition rate to increase of number of neutrophils in BALF ([3]; 30 μg/rat) [%] | Number of neutrophils ([3]; 30 μg/rat) | Inhibition rate to increase of number of neutrophils in BALF ([3]; 100 μg/rat) [%] | Number of neutrophils ([3]; 100 μg/rat) | inhibitory effect to infiltration of neutrophils induced by antigen (in words) [3] | inhibitory effect to gastric excretion (in words) (gastric excretion)
COc1ccc(C(=O)Cc2c(Cl)cncc2Cl)c2c1OC1(CCCC1)O2 [Compound (II), 7-[2-(3,5-dichloro-4-pyridyl)-1-oxoethyl]-4-methoxy-spiro-[1,3-benzodioxole-2,1′-cyclopentane]] | 50 | 0.09 ± 0.03 10^6/BALF | 86 | 0.04 ± 0.01^## 10^6/BALF | inhibited | 3640 | 0.733 | 3.81 | 4970 | 56 | 0.64 ± 0.14 10^6/BALF | 80 | 0.43 ± 0.06^# 10^6/BALF | inhibited | no significant inhibitory effect to gastric excretion was observed
COc1ccc(C(=O)Nc2c(Cl)cncc2Cl)cc1OC1CCCC1 [RP 73401, reference compound] | – | – | – | – | significant inhibitory activity | 248 | 0.826 | 0.341 | 300 | – | – | – | – | significant inhibitory activity | a dose-depending inhibitory effect to gastric excretion was observed
